≈ marks a conversion by molar mass, not a printed value. Where a SMILES comes first, the peptide text is derived from it. The star is where a group is joined. Lauroyl = CCCCCCCCCCCC(=O)*
Experiments:
C.albicans CCM 8186 = test: MIC, broth microdilution; format: cell-based, Candida albicans
From the text: (§1) Escherichia coli (PCM 2057 = ATCC 25922), Staphylococcus aureus (PCM 2054 = ATCC 25923), Staphylococcus epidermidis (PCM 2118 = ATCC 14990), Bacillus subtilis (PCM 2224 = ATCC 9799), Bacillus cereus (PCM 482 = ATCC 10702) and Pseudomonas aeruginosa (PCM 499 = ATCC 10145) were obtained from the Polish Collection of Microorganisms. Fungi strains Candida albicans (CCM 8186 = CNTC 49/64), Candida glabrata (CCM 8270 = ATCC 90030), Candida parapsilosis (CCM 8260 = ATCC 22019) and Candida krusei (CCM 8271 = ATCC 6258) were acquired from the Czech Collection of Microorganisms. S. aureus USA300 (wild type strain), the reference strain of Klebsiella pneumoniae (ATCC 13883) and clinical isolates of Pseudomonas aeruginosa (PA1, PA2) collected from nonrelated patients admitted to the Stefan Zeromski Specialist Municipal Hospital in Krakow (Poland) were kindly provided by the research group of the Department of Microbiology, Faculty of Biochemistry, Biophysics and Biotechnology, Jagiellonian University, Krakow, Poland.
(§2) Luria-Bertani broth (LB) and Sabouraud Dextrose broth (SB) (Biocorp, Poland) were used for cultivation of bacteria and fungi strains, respectively. The antimicrobial activity of the peptides were analyzed through determination of MIC (minimal inhibitory concentration) parameters according to Clinical and Laboratory Standards (CLSI) guidelines developed for aerobic bacteria and yeasts, respectively. Mueller-Hinton broth (MHB) was used as the working medium for all bacterial strains, while in the case of fungi, RPMI-1640 (with L-glutamine, without sodium bicarbonate) growth medium buffered with MOPS (morpholinepropanesulfonic acid) and supplemented with 2% glucose was used. Inoculum was prepared from freshly grown cultures of microorganisms at their exponential phase of growth. […] Plates were then incubated for 24 h at 37 °C in the case of bacteria and at 35 °C in the case of fungi. After that time, absorbance was read at 590 nm with a Perkin Elmer plate reader. Cultures without peptide were treated as positive control, while uninoculated media were defined as negative control. All measurements were run at least in triplicate.

C.krusei CCM 8271 = test: MIC, broth microdilution; format: cell-based, Candida krusei; settings: C.krusei CCM 8271, 24 h
From the text: as §1, §2

B. subtilis PCM 2224 = test: MIC, broth microdilution; format: cell-based, Bacillus subtilis; settings: B. subtilis PCM 2224, 24 h
From the text: as §1, §2

B. cereus PCM 482 = test: MIC, broth microdilution; format: cell-based, Bacillus cereus; settings: B. cereus PCM 482, 24 h
From the text: as §1, §2

K.pneumoniae ATCC 13883 = format: cell-based, Klebsiella pneumoniae; settings: K.pneumoniae ATCC 13883
From the text: as §1, §2

P. aeruginosa PA1 = format: cell-based, Pseudomonas aeruginosa; settings: P. aeruginosa PA1 clinical isolate
From the text: as §1, §2

P. aeruginosa PA2 = format: cell-based, Pseudomonas aeruginosa; settings: P. aeruginosa PA2 clinical isolate
From the text: as §1, §2

S. aureus USA300 = format: cell-based, Staphylococcus aureus
From the text: as §1, §2

[1] = tested on: C. albicans (CCM 8186) biofilm; test: Biofilm inhibition assay (MTT); format: cell-based, Candida albicans; settings: C. albicans biofilm development, 24 h post-inoculation
Experimental: In the case of bacteria, an overnight culture of S. aureus in Tryptic Soy Broth (TSB) supplemented with 2% glucose (TSB/+G) was used to prepare inoculum for the experiments. Briefly, 5 mL of 24 h culture was centrifuged at 5000× g, washed with sterile PBS and suspended in a fresh 2 × concentrated TSB/+G. In the case of yeasts, the overnight culture of C. albicans in Sabouraud dextrose broth (SB) was used for inoculum preparation. Similar to above, 5 mL of 24 h culture was centrifuged, washed with PBS and then suspended in sterile 2 × concentrated RPMI-1640 medium (with L-glutamine, without sodium bicarbonate) supplemented with 2% glucose (RPMI-1640/+G). In both cases, the cell concentration of the inoculum was about 1 × 10^7 cells per ml.
For the determination of the inhibitory concentration that reduced biofilm development by 50% (BIC50^, expressed in µg/mL), 100 µL inoculum in 2 × concentrated RPMI-1640/+G medium (in the case of C. albicans) or 2 x concentrated TSB/+G broth (in the case of S. aureus) was transferred to each well of 96-well plates containing 100 µL of serially diluted in water tested compounds. The final concentrations of the compounds were the same as those used in MIC determination studies. The 96-well plates were then incubated for 24 h at 37 °C and 35 °C in the case of bacteria and fungi, respectively. Viability of the microorganisms in the presence of the tested compounds was analyzed by means of MTT assay.
The reduction in biofilm viability was analyzed by means of MTT assay. Briefly, 20 μL of MTT solution (5 mg/mL in PBS) was added to prewashed wells with exchanged medium (180 μL of fresh medium) wells containing bacterial/yeast biofilms. Plates were then incubated in the dark for the next 3 h at 37 °C. After that time, the medium was replaced with 6 mM HCl in isopropanol and, when the reduced MTT was fully dissolved, the plates were read at 570 nm. Activity against fully developed 24 h old biofilm was described as biofilm eradication concentration (BEC50 expressed in µg/mL), which corresponded to the concentration of the compound able to reduce 50% of biofilm viability compared with the growth control.

With `CCCCCCCCCCCC(=O)N[C@H](C(=O)N[C@@H](CCCCN)C(=O)N[C@@H](CCCCN)C(=O)N[C@H](C(=O)N[C@@H](CC(C)C)C(=O)N[C@@H](CO)C(=O)N[C@@H](CCCCN)C(=O)N[C@H](C(=O)N[C@@H](CCCCN)C(=O)N[C@@H](CCCCN)C(=O)N[C@@H](CC(C)C)C(=O)N[C@@H](CC(C)C)C(N)=O)[C@@H](C)CC)[C@@H](C)CC)[C@@H](C)CC` [Compound C12-DK5] (Lauroyl-IKKILSKIKKLL-NH2) the “fold improved activity in comparison to the parent DK5” value (C.albicans CCM 8186; C. albicans, MIC) was “about 10 fold”, the MIC100 (C.albicans CCM 8186; C.albicans CCM 8186, 24 h) was 3.13 µg/mL (≈ 1.95 µM) and the MIC100 (C.krusei CCM 8271) was 3.13 µg/mL (≈ 1.95 µM). For the same molecule, the MIC100 (B. subtilis PCM 2224) was 0.78 µg/mL (≈ 0.486 µM), the MIC100 (B. cereus PCM 482) was 12.5 µg/mL (≈ 7.78 µM) and the “MIC100” value (K.pneumoniae ATCC 13883) was 25 µg/mL (≈ 15.6 µM). The “MIC100” value (P. aeruginosa PA1) was 50 µg/mL (≈ 31.1 µM), the “MIC100” value (P. aeruginosa PA2) was 50 µg/mL (≈ 31.1 µM) and the “MIC100” value (S. aureus USA300) was 25 µg/mL (≈ 15.6 µM). It also gave a BIC50 [1] of 6.25 µg/mL.
